# According to ChEMBL document CHEMBL1155172, “Distribution of radioactivity in bone and related structures following administration of [14C]dalbavancin to New Zealand white rabbits” (Antimicrob Agents Chemother, 2007):
# Columns and labels:
# Design in all cases: dose 20 mg/kg, route intravenous
# Settings in all cases: in vivo
# [1] = Drug level in New Zealand white rabbit ligament assessed as [14C]dalbavancin level per gram of tissue at 20 mg/kg, iv after 336 hrs by autoradioluminography; type: ADME, organism-based, Oryctolagus cuniculus
# [2] = Drug level in New Zealand white rabbit synovial space assessed as [14C]dalbavancin level per gram of tissue at 20 mg/kg, iv after 12 hrs by autoradioluminography; type: ADME, organism-based, Oryctolagus cuniculus
# [3] = Drug level in New Zealand white rabbit meniscus assessed as [14C]dalbavancin level per gram of tissue at 20 mg/kg, iv after 12 hrs by autoradioluminography; type: ADME, organism-based, Oryctolagus cuniculus
# [4] = Drug level in New Zealand white rabbit meniscus assessed as [14C]dalbavancin level per gram of tissue at 20 mg/kg, iv after 120 hrs by autoradioluminography; type: ADME, organism-based, Oryctolagus cuniculus
# [5] = Drug level in New Zealand white rabbit bone marrow assessed as [14C]dalbavancin level per gram of tissue at 20 mg/kg, iv after 120 hrs by autoradioluminography; type: ADME, organism-based, Oryctolagus cuniculus
# [6] = Drug level in New Zealand white rabbit skeletal muscle assessed as [14C]dalbavancin level per gram of tissue at 20 mg/kg, iv after 12 hrs by autoradioluminography; type: ADME, organism-based, Oryctolagus cuniculus
# [7] = Drug level in New Zealand white rabbit skeletal muscle assessed as [14C]dalbavancin level per gram of tissue at 20 mg/kg, iv after 24 hrs by autoradioluminography; type: ADME, organism-based, Oryctolagus cuniculus
# [8] = Drug level in New Zealand white rabbit skeletal muscle assessed as [14C]dalbavancin level per gram of tissue at 20 mg/kg, iv after 72 hrs by autoradioluminography; type: ADME, organism-based, Oryctolagus cuniculus
# [9] = Drug level in New Zealand white rabbit skeletal muscle assessed as [14C]dalbavancin level per gram of tissue at 20 mg/kg, iv after 120 hrs by autoradioluminography; type: ADME, organism-based, Oryctolagus cuniculus
# [10] = Drug level in New Zealand white rabbit skeletal muscle assessed as [14C]dalbavancin level per gram of tissue at 20 mg/kg, iv after 336 hrs by autoradioluminography; type: ADME, organism-based, Oryctolagus cuniculus
# Blood [11] = assay: Drug level in New Zealand white rabbit blood assessed as [14C]dalbavancin level per gram of tissue at 20 mg/kg, iv after 168 hrs by autoradioluminography; type: ADME, organism-based, Oryctolagus cuniculus
# Blood [12] = assay: Drug level in New Zealand white rabbit blood assessed as [14C]dalbavancin level per gram of tissue at 20 mg/kg, iv after 336 hrs by autoradioluminography; type: ADME, organism-based, Oryctolagus cuniculus
# [13] = Drug level in New Zealand white rabbit periostium assessed as [14C]dalbavancin level per gram of tissue at 20 mg/kg, iv after 120 hrs by autoradioluminography; type: ADME, organism-based, Oryctolagus cuniculus, Periosteum
# [14] = Drug level in New Zealand white rabbit periostium assessed as [14C]dalbavancin level per gram of tissue at 20 mg/kg, iv after 168 hrs by autoradioluminography; type: ADME, organism-based, Oryctolagus cuniculus, Periosteum
# [15] = Drug level in New Zealand white rabbit periostium assessed as [14C]dalbavancin level per gram of tissue at 20 mg/kg, iv after 336 hrs by autoradioluminography; type: ADME, organism-based, Oryctolagus cuniculus, Periosteum
# [16] = Drug level in New Zealand white rabbit articular cartilage assessed as [14C]dalbavancin level per gram of tissue at 20 mg/kg, iv after 24 hrs by autoradioluminography; type: ADME, organism-based, Oryctolagus cuniculus
# [17] = Drug level in New Zealand white rabbit articular cartilage assessed as [14C]dalbavancin level per gram of tissue at 20 mg/kg, iv after 168 hrs by autoradioluminography; type: ADME, organism-based, Oryctolagus cuniculus
# [18] = Drug level in New Zealand white rabbit articular cartilage assessed as [14C]dalbavancin level per gram of tissue at 20 mg/kg, iv after 336 hrs by autoradioluminography; type: ADME, organism-based, Oryctolagus cuniculus
# [19] = Drug level in New Zealand white rabbit compact bone assessed as [14C]dalbavancin level per gram of tissue at 20 mg/kg, iv after 12 hrs by autoradioluminography; type: ADME, organism-based, Oryctolagus cuniculus, Bone element
# [20] = Drug level in New Zealand white rabbit compact bone assessed as [14C]dalbavancin level per gram of tissue at 20 mg/kg, iv after 24 hrs by autoradioluminography; type: ADME, organism-based, Oryctolagus cuniculus, Bone element
# [21] = Drug level in New Zealand white rabbit compact bone assessed as [14C]dalbavancin level per gram of tissue at 20 mg/kg, iv after 72 hrs by autoradioluminography; type: ADME, organism-based, Oryctolagus cuniculus, Bone element
# [22] = Drug level in New Zealand white rabbit compact bone assessed as [14C]dalbavancin level per gram of tissue at 20 mg/kg, iv after 120 hrs by autoradioluminography; type: ADME, organism-based, Oryctolagus cuniculus, Bone element
# [23] = Drug level in New Zealand white rabbit epiphyseal plate assessed as [14C]dalbavancin level per gram of tissue at 20 mg/kg, iv after 12 hrs by autoradioluminography; type: ADME, organism-based, Oryctolagus cuniculus
# [24] = Drug level in New Zealand white rabbit epiphyseal plate assessed as [14C]dalbavancin level per gram of tissue at 20 mg/kg, iv after 120 hrs by autoradioluminography; type: ADME, organism-based, Oryctolagus cuniculus
# [25] = Drug level in New Zealand white rabbit epiphyseal plate assessed as [14C]dalbavancin level per gram of tissue at 20 mg/kg, iv after 168 hrs by autoradioluminography; type: ADME, organism-based, Oryctolagus cuniculus
# [26] = Drug level in New Zealand white rabbit ligament assessed as [14C]dalbavancin level per gram of tissue at 20 mg/kg, iv after 72 hrs by autoradioluminography; type: ADME, organism-based, Oryctolagus cuniculus
# [27] = Drug level in New Zealand white rabbit ligament assessed as [14C]dalbavancin level per gram of tissue at 20 mg/kg, iv after 120 hrs by autoradioluminography; type: ADME, organism-based, Oryctolagus cuniculus
# Oryctolagus cuniculus = assay: Plasma concentration in New Zealand white rabbit assessed as [14C]dalbavancin level per gram of tissue at 20 mg/kg, iv after 24 hrs by liquid scintillation counting method; type: ADME, organism-based
# [28] = Drug level in New Zealand white rabbit bone assessed as [14C]dalbavancin level per gram of tissue at 20 mg/kg, iv after 24 hrs by liquid scintillation counting method; type: ADME, organism-based, Oryctolagus cuniculus, Bone element
# [29] = Drug level in New Zealand white rabbit bone assessed as [14C]dalbavancin level per gram of tissue at 20 mg/kg, iv after 120 hrs by liquid scintillation counting method; type: ADME, organism-based, Oryctolagus cuniculus, Bone element
# [30] = Drug level in New Zealand white rabbit bone marrow assessed as [14C]dalbavancin level per gram of tissue at 20 mg/kg, iv after 12 hrs by liquid scintillation counting method; type: ADME, organism-based, Oryctolagus cuniculus
# [31] = Drug level in New Zealand white rabbit bone marrow assessed as [14C]dalbavancin level per gram of tissue at 20 mg/kg, iv after 24 hrs by liquid scintillation counting method; type: ADME, organism-based, Oryctolagus cuniculus
# [32] = Drug level in New Zealand white rabbit bone marrow assessed as [14C]dalbavancin level per gram of tissue at 20 mg/kg, iv after 168 hrs by liquid scintillation counting method; type: ADME, organism-based, Oryctolagus cuniculus
# [33] = Drug level in New Zealand white rabbit nucleus pulposus assessed as [14C]dalbavancin level per gram of tissue at 20 mg/kg, iv after 12 hrs by liquid scintillation counting method; type: ADME, organism-based, Oryctolagus cuniculus
# [34] = Drug level in New Zealand white rabbit nucleus pulposus assessed as [14C]dalbavancin level per gram of tissue at 20 mg/kg, iv after 72 hrs by liquid scintillation counting method; type: ADME, organism-based, Oryctolagus cuniculus
# [35] = Drug level in New Zealand white rabbit cerebrospinal fluid assessed as [14C]dalbavancin level per gram of tissue at 20 mg/kg, iv after 12 hrs by liquid scintillation counting method; type: ADME, organism-based, Oryctolagus cuniculus
# Blood [36] = assay: Drug level in New Zealand white rabbit blood assessed as [14C]dalbavancin level per gram of tissue at 20 mg/kg, iv after 12 hrs by autoradioluminography; type: ADME, organism-based, Oryctolagus cuniculus
# Blood [37] = assay: Drug level in New Zealand white rabbit blood assessed as [14C]dalbavancin level per gram of tissue at 20 mg/kg, iv after 72 hrs by autoradioluminography; type: ADME, organism-based, Oryctolagus cuniculus
smiles,measurement,setting,value
CN[C@H]1C(=O)N[C@@H]2Cc3ccc(cc3)Oc3cc4cc(c3O[C@@H]3O[C@H](C(=O)O)[C@@H](O)[C@H](O)[C@H]3NC(=O)CCCCCCCCC(C)C)Oc3ccc(cc3Cl)[C@@H](O)[C@@H]3NC(=O)[C@H](NC(=O)[C@@H]4NC(=O)[C@@H](NC2=O)c2cc(cc(O)c2Cl)Oc2cc1ccc2O)c1ccc(O)c(c1)-c1c(O[C@H]2O[C@H](CO)[C@@H](O)[C@H](O)[C@@H]2O)cc(O)cc1[C@@H](C(=O)NCCCN(C)C)NC3=O [DALBAVANCIN],Drug uptake,[1],1.43 µg
same,Drug uptake,[2],6.56 µg/g
same,Drug uptake,[3],19.19 µg
same,Drug uptake,[4],4.39 µg/g
same,Drug uptake,[5],29.9 µg/g
same,Drug uptake,[6],3.26 µg
same,Drug uptake,[7],1.92 µg
same,Drug uptake,[8],1.25 µg
same,Drug uptake,[9],0.99 µg/g
same,Drug uptake,[10],0.8 µg/g
same,Drug uptake,Blood [11],5.33 µg/g
same,Drug uptake,Blood [12],3.08 µg/g
same,Drug uptake,[13],12.2 µg/g
same,Drug uptake,[14],7.28 µg
same,Drug uptake,[15],5.18 µg
same,Drug uptake,[16],21.4 µg/g
same,Drug uptake,[17],7.48 µg/g
same,Drug uptake,[18],4.84 µg
same,Drug uptake,[19],1.56 µg/g
same,Drug uptake,[20],1.56 µg/g
same,Drug uptake,[21],0.39 µg
same,Drug uptake,[22],0.38 µg/g
same,Drug uptake,[23],21.9 µg/g
same,Drug uptake,[24],10.3 µg/g
same,Drug uptake,[25],13.1 µg/g
same,Drug uptake,[26],4.56 µg
same,Drug uptake,[27],3.68 µg/g
same,Cp,Oryctolagus cuniculus,19.3 µg/g
same,Drug uptake,[28],5.14 µg/g
same,Drug uptake,[29],3.46 µg/g
same,Drug uptake,[30],15.1 µg/g
same,Drug uptake,[31],14.8 µg/g
same,Drug uptake,[32],16.1 µg/g
same,Drug uptake,[33],0.86 µg/g
same,Drug uptake,[34],0.67 µg
same,Drug uptake,[35],0.08 µg/g
same,Drug uptake,Blood [36],30.6 µg/g
same,Drug uptake,Blood [37],5.02 µg/g
